Converted amounts (≈) assume the structure as drawn.
Tested on: L5178Y
Assay: Growth inhibition of mouse L5178Y cells
Type: functional
Details: read-out: ID50 (the source's name)

Going from `Nc1ccn([C@@H]2O[C@H](CO)[C@@H](Br)[C@@H]2O)c(=O)n1` to `Nc1ccn([C@@H]2O[C@H](CO)[C@@H](I)[C@@H]2O)c(=O)n1`, the IC50 falls from 10 µg/mL (≈ 32.7 µM) to 1 µg/mL (≈ 2.83 µM) (10-fold).

In the case of `[N-]=[N+]=N[C@H]1[C@H](O)[C@H](n2ccc(N)nc2=O)O[C@@H]1CO`, the IC50 is reported as 0.5 µg/mL (≈ 1.86 µM).

Tested on: L5178Y
Assay: Growth inhibition of mouse L5178Y cells at 10 ug/ml
Type: functional
Details: read-out: GI

First: O=c1ccn([C@@H]2O[C@H](CO)[C@@H](Br)[C@@H]2O)c(=O)[nH]1
Second: O=c1ccn([C@@H]2O[C@H](CO)[C@@H](I)[C@@H]2O)c(=O)[nH]1
The inhibition of growth at 10 µg/mL of the first is higher: 6% for the first, 0% for the second.

Compared with `O=c1ccn([C@@H]2O[C@H](CO)[C@@H](N=C=S)[C@@H]2O)c(=O)[nH]1`, `[N-]=[N+]=N[C@H]1[C@H](O)[C@H](n2ccc(=O)[nH]c2=O)O[C@@H]1CO` is lower in inhibition of growth at 10 µg/mL: 5% for the first, 0% for the second.

Compound `Nc1ccn([C@@H]2O[C@H](CO)[C@@H](N=C=S)[C@@H]2O)c(=O)n1` has an inhibition of growth at 10 µg/mL of 34%.
